Data as given in ChEMBL document CHEMBL1201862, “PubChem BioAssay data set” (2004).
Structures can show the parent of a compound that is named as a salt.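 Step 1: Grow cells in 96-well plates. Step 2: Expose to compound for 48 hours at 5 concentrations. Step 3: Interpolate endpoints linearly; if unreached, use highest concentration. GI50 marks 50% less growth.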 Active and inactive are the calls of the source. No stated cut-off is given here; in the data, active = GI50 up to about 1.1 µM and inactive = higher.

Experiments:
Test in all cases: inhibition of tumour cell growth, NCI panel, 48 h
[1] = tested on: NCI-H522
[2] = tested on: SNB-78
[3] = tested on: HOP-92
[4] = tested on: TK-10
[5] = tested on: NCI-H23
[6] = tested on: SN12C
[7] = tested on: HCC 2998
[8] = tested on: SNB-75
[9] = tested on: UACC-257
[10] = tested on: HCT-116
[11] = tested on: LOX IMVI
[12] = tested on: OVCAR-4
[13] = tested on: SK-MEL-2
[14] = tested on: A498
[15] = tested on: EKVX
[16] = tested on: CAKI-1
[17] = tested on: MDA-N
[18] = tested on: MCF7
[19] = tested on: NCI/ADR-RES
[20] = tested on: PC-3

| SMILES | GI50 [1] | GI50 [2] | GI50 [3] | GI50 [4] | GI50 [5] | GI50 [6] | GI50 [7] | GI50 [8] | GI50 [9] | GI50 [10] | GI50 [11] | GI50 [12] | GI50 [13] | GI50 [14] | GI50 [15] | GI50 [16] | GI50 [17] | GI50 [18] | GI50 [19] | GI50 [20] |
| --- | --- | --- | --- | --- | --- | --- | --- | --- | --- | --- | --- | --- | --- | --- | --- | --- | --- | --- | --- | --- |
| CC1OC(n2cc(C(F)(F)F)c(=O)[nH]c2=O)C=CC1=O (stereo unspecified) | 16 µM (inactive) | 15.8 µM (inactive) | 23.9 µM (inactive) | 20.9 µM (inactive) | 18.2 µM (inactive) | 23.3 µM (inactive) | 18.3 µM (inactive) | 16 µM (inactive) | 19.1 µM (inactive) | 16.2 µM (inactive) | 17.6 µM (inactive) | 13.4 µM (inactive) | 18.2 µM (inactive) | – | – | – | – | – | – | – |
| O=C1Nc2ccccc2N=CC1NC(=O)C(c1ccccc1)c1ccccc1 (stereo unspecified) | > 100 µM (inactive) | > 100 µM (inactive) | 32.5 µM (inactive) | > 100 µM (inactive) | > 100 µM (inactive) | > 100 µM (inactive) | > 100 µM (inactive) | > 100 µM (inactive) | > 100 µM (inactive) | > 100 µM (inactive) | > 100 µM (inactive) | > 100 µM (inactive) | > 100 µM (inactive) | > 100 µM (inactive) | > 100 µM (inactive) | > 100 µM (inactive) | – | – | – | – |
| O=C(COc1ccc(Cl)cc1)N1CCN(C(=O)COc2ccc(Cl)cc2)c2ccccc21 | 22.5 µM (inactive) | 45.4 µM (inactive) | 30.3 µM (inactive) | 33.4 µM (inactive) | > 100 µM (inactive) | – | > 100 µM (inactive) | 45.6 µM (inactive) | 25.2 µM (inactive) | 30.4 µM (inactive) | 91.2 µM (inactive) | – | 28.1 µM (inactive) | 74.8 µM (inactive) | 26.3 µM (inactive) | – | – | – | – | – |
| CC12CP(=O)(c3ccccc3)CC1C2(Cl)Cl (stereo unspecified) | > 100 µM (inactive) | > 100 µM (inactive) | – | > 100 µM (inactive) | > 100 µM (inactive) | > 100 µM (inactive) | > 100 µM (inactive) | 28.1 µM (inactive) | – | > 100 µM (inactive) | > 100 µM (inactive) | > 100 µM (inactive) | – | – | > 100 µM (inactive) | – | – | – | – | – |
| CC(=O)Nc1c(Nc2ccccc2)[nH]c(C)nc1=S | > 100 µM (inactive) | > 100 µM (inactive) | > 100 µM (inactive) | > 100 µM (inactive) | > 100 µM (inactive) | > 100 µM (inactive) | > 100 µM (inactive) | 92.9 µM (inactive) | > 100 µM (inactive) | – | > 100 µM (inactive) | > 100 µM (inactive) | > 100 µM (inactive) | – | > 100 µM (inactive) | > 100 µM (inactive) | – | – | – | – |
| CCOC12OC3=C(CC1CC1=C(CCC1=O)O2)C(=O)CC3 (stereo unspecified) | > 100 µM (inactive) | > 100 µM (inactive) | > 100 µM (inactive) | > 100 µM (inactive) | > 100 µM (inactive) | > 100 µM (inactive) | – | > 100 µM (inactive) | > 100 µM (inactive) | > 100 µM (inactive) | > 100 µM (inactive) | > 100 µM (inactive) | > 100 µM (inactive) | > 100 µM (inactive) | > 100 µM (inactive) | > 100 µM (inactive) | – | – | – | – |
| Cc1c(Cl)ccc2[s+]snc12 | 19.6 µM (inactive) | 31 µM (inactive) | – | 62.7 µM (inactive) | 52.5 µM (inactive) | 24.3 µM (inactive) | 88.3 µM (inactive) | 67.6 µM (inactive) | 30.3 µM (inactive) | 22.7 µM (inactive) | 23.7 µM (inactive) | 42.3 µM (inactive) | 29.2 µM (inactive) | 68.2 µM (inactive) | > 100 µM (inactive) | 37.9 µM (inactive) | – | – | – | – |
| O=C1C2C3C=C4c5ccccc5N(c5ccccc5)C4(C2C(=O)N1c1ccc(Cl)cc1)[C@H]1C(=O)N(c2ccc(Cl)cc2)C(=O)[C@@H]31 (stereo partly specified) | 82.6 µM (inactive) | > 100 µM (inactive) | > 100 µM (inactive) | > 100 µM (inactive) | > 100 µM (inactive) | > 100 µM (inactive) | – | > 100 µM (inactive) | > 100 µM (inactive) | 78.3 µM (inactive) | > 100 µM (inactive) | > 100 µM (inactive) | > 100 µM (inactive) | > 100 µM (inactive) | > 100 µM (inactive) | 14.7 µM (inactive) | – | – | – | – |
| CC[C@]12CN3CCc4c([nH]c5ccccc45)[C@@](C(=O)OC)(c4cc5c(cc4OC)N(C)[C@H]4[C@@](O)(C(=O)OC)[C@H](OC(C)=O)[C@]6(CC)C=CCN7CC[C@]54[C@@H]76)CC(C3)[C@H]1O2 (stereo partly specified) [VINLEUROSINE SULFATE] | < 0.01 µM (active) | – | 8.13 µM (inactive) | > 47.5 µM (inactive) | 0.126 µM (active) | < 0.01 µM (active) | < 0.01 µM (active) | 0.0716 µM (active) | 3.24 µM (inactive) | < 0.01 µM (active) | < 0.01 µM (active) | < 0.01 µM (active) | 0.0968 µM (active) | 0.863 µM (active) | 10.8 µM (inactive) | 2.16 µM (inactive) | < 10 nM (active) | < 14 nM (active) | 16.1 µM (inactive) | 134 nM (active) |
